For two compounds, IC50 results are on record in ChEMBL document CHEMBL1142647, “Potent pyrimidinetrione-based inhibitors of MMP-13 with enhanced selectivity over MMP-14” (Bioorg Med Chem Lett, 2005).

This assay has as its target Collagenase 3 (Homo sapiens, UniProt P45452). As to the kind of experiment: Inhibitory concentration against matrix metalloprotease 13.

For `CC1(Oc2ccc(Cl)cc2)C(=O)NC(=O)NC1=O`, it took 390 nM to reach half-maximal inhibition (IC50).

On to `CCCCC1(Oc2ccc(Oc3ccc(F)cc3)cc2)C(=O)NC(=O)NC1=O`, for which the midpoint of inhibition, the IC50, lay at 2 nM.
